Molecules are shown by their SMILES.

Results on four compounds are retold here after patent publication US20060249167A1, “Flavor ingredients for cooling preparations” (priority 2003, published 2006).

Data set [1] in a line: Organoleptic (odor and flavor) description of the compound and its isomers. The settings on record: in vivo.

With `CC1CCC(C(C)C)C2(C1)OC(=O)C(C)O2` (stereo not shown) [Compound (I), 6-isopropyl-3,9-dimethyl-1,4-dioxaspiro[4.5]decan-2-one], in data set [1], the flavor entry is on record as “minty, fresh, piperita type” and the odor result is recorded as “minty, menthone type odor”.
For `CC(C)[C@@H]1CC[C@@H](C)CC12OC(=O)[C@H](C)O2` (stereo partly drawn) [Compound of example 1a, (3S, 6S, 9R)-6-isopropyl-3,9-dimethyl-1,4-dioxaspiro[4.5]decan-2-one], the flavor result in data set [1] is “interesting minty note with refreshing effect”.
On to `CC(C)[C@@H]1CC[C@@H](C)C[C@@]12OC(=O)[C@H](C)O2` [Compound of example 1b, (3S, 5R, 6S, 9R)-6-isopropyl-3,9-dimethyl-1,4-dioxaspiro[4.5]decan-2-one], for which the flavor result is “more of the cooling type with a minty connotation” in data set [1]; “stronger and more lingering effect” in data set [1] (listed as (3S,5R,6S,9R) isomer).
The term melting point denotes the temperature of the solid-liquid transition. With `CC(C)[C@@H]1CC[C@@H](C)C[C@]12OC(=O)[C@H](C)O2` [Compound of example 1c, (3S, 5S, 6S, 9R)-6-isopropyl-3,9-dimethyl-1,4-dioxaspiro[4.5]decan-2-one], the melting point lay within 33 to 34 °C. Moreover, the flavor entry in data set [1] is listed as “more of the cooling type with a minty connotation”.
